Test results as given in ChEMBL document CHEMBL4145514, “Unexplored antifungal activity of linear battacin lipopeptides against planktonic and mature biofilms of C. albicans” (Eur J Med Chem, 2018).
Converted amounts (≈) assume the structure as drawn. The source made the active and inactive calls. The rule behind the calls is not given here. Bridge positions count the residues as written; N and C are the ends. Square brackets hold non-standard residues; d marks the D form. Peptide text beside a SMILES is read from it. * marks the point of attachment. Myristoyl = CCCCCCCCCCCCCC(=O)*; X2 = CC(C)=CCC/C(C)=C/C(=O)*; X3 = CC[C@H](C)CCCCC(=O)*; dDab = NCC[C@@H](N)C(=O)O; X1 = CCC(C)CCC(O)CC(=O)*; Dab = NCC[C@H](N)C(=O)O

Key:
[1] = tested on: Candida albicans; experiment: Antifungal activity against Candida albicans SC5314 after 48 hrs; format: functional; details: SC5314, 48 h
[2] = tested on: Lipid bilayer; experiment: Disruption of phosphatidylcholine/ phosphatidylinositol/phosphatidylethanolamine membrane at 200 uM by colorimetric assay
[3] = tested on: Candida albicans; experiment: Ratio of MIC for Candida albicans SC5314 to MIC for Candida albicans SC5314 in presence of 800 nmol AmB; format: functional
[4] = tested on: Candida albicans; experiment: Induction of eradication of 24 hrs old preformed Candida albicans SC5314 biofilm after 24 to 48 hrs by XTT assay; format: functional
[5] = tested on: Candida albicans; experiment: Induction of ROS generation in Candida albicans SC5314 after 24 to 48 hrs by DCF-DA staining based fluorescence assay; format: functional, organism-based
[6] = tested on: Candida albicans; experiment: Ratio of MBEC50 for 24 hrs old preformed Candida albicans SC5314 biofilm to MIC for Candida albicans SC5314; format: functional
[7] = tested on: Candida albicans; experiment: Synergistic antifungal activity against Candida albicans SC5314 assessed as FIC index after 48 hrs in presence of 400 nmol AmB; format: functional
[8] = tested on: Candida albicans; experiment: Synergistic antifungal activity against Candida albicans SC5314 assessed as FIC index after 48 hrs in presence of 800 nmol AmB; format: functional
[9] = tested on: Candida albicans; experiment: Induction of ROS generation in Candida albicans SC5314 at 0.2 to 100 uM after 24 to 48 hrs in presence of ascorbic acid by DCF-DA staining based fluorescence assay; format: functional, organism-based
[10] = Haemolytic activity in mouse RBC at 1 mM incubated for 1 hr relative to control; format: ADME, cell-based, Erythrocyte; details: mouse red blood cells (erythrocytes), read-out: Activity
[11] = tested on: Candida albicans; experiment: Antibiofilm activity against Candida albicans SC5314 incubated for overnight by XTT assay; format: functional
[12] = tested on: Candida albicans; experiment: Induction of morphological changes in Candida albicans SC5314 assessed as necrosis of cytoplasm at 10 times MIC after 45 mins by Uranyl acetate/Lead citrate staining based transmission electron microscopic analysis; format: functional, organism-based
[13] = tested on: Candida albicans; experiment: Induction of morphological changes in Candida albicans SC5314 assessed as disruption of fungal cell walls at 10 times MIC after 45 mins by Uranyl acetate/Lead citrate staining based transmission electron microscopic analysis; format: functional, organism-based
[14] = tested on: Candida albicans; experiment: Synergistic antifungal activity against Candida albicans SC5314 after 48 hrs in presence of 800 nmol AmB; format: functional; details: SC5314, 48 h
[15] = tested on: Candida albicans; experiment: Induction of morphological changes in Candida albicans SC5314 assessed as formation of abnormal curvature of cell membranes at MIC after 45 mins by Uranyl acetate/Lead citrate staining based transmission electron microscopic analysis; format: functional, organism-based
[16] = tested on: Candida albicans; experiment: Induction of morphological changes in Candida albicans SC5314 assessed as disruption of fungal cell membranes at 10 times MIC after 45 mins by Uranyl acetate/Lead citrate staining based transmission electron microscopic analysis; format: functional, organism-based
[17] = tested on: Candida albicans; experiment: Induction of eradication of 48 hrs old preformed Candida albicans SC5314 biofilm at 62.5 uM after 24 to 48 hrs by XTT assay; format: functional, organism-based
[18] = tested on: Candida albicans; experiment: Induction of morphological changes in Candida albicans SC5314 assessed as formation of distorted shape cells at MIC after 45 mins by Uranyl acetate/Lead citrate staining based transmission electron microscopic analysis; format: functional, organism-based
[19] = tested on: Candida albicans; experiment: Ratio of MIC for Candida albicans SC5314 to MIC for Candida albicans SC5314 in presence of 400 nmol AmB; format: functional
[20] = tested on: Candida albicans; experiment: Synergistic antifungal activity against Candida albicans SC5314 after 48 hrs in presence of 400 nmol AmB; format: functional; details: SC5314, 48 h
[21] = tested on: Erythrocyte; experiment: Haemolytic activity in human RBC incubated for 2 hrs; format: ADME, cell-based
[22] = Toxicity in iv dosed Kunming mouse assessed as death counted daily for 14 days; format: organism-based; details: in vivo
[23] = tested on: HEK293; experiment: Cytotoxicity against HEK293 cells after 48 hrs by MTT assay; format: cell-based; details: human, hek293, 48 h

## CCC(C)CCC(=O)N[C@H](CCN)C(=O)N[C@@H](CCN)C(=O)N[C@@H](CCN)C(=O)N[C@@H](CC(C)C)C(=O)N[C@H](Cc1c[nH]c2ccccc12)C(=O)N[C@@H](CCN)C(=O)N[C@@H](CCN)C(=O)N[C@@H](CC(C)C)C(N)=O (stereo partly specified)
[1]
  MIC: 25 µM (≈ 26.1 µg/mL)

## CCCCCC(=O)N[C@H](CCN)C(=O)N[C@@H](CCN)C(=O)N[C@@H](CCN)C(=O)N[C@@H](CC(C)C)C(=O)N[C@H](Cc1ccccc1)C(=O)N[C@@H](CCN)C(=O)N[C@@H](CCN)C(=O)N[C@@H](CC(C)C)C(N)=O
[2]
  Activity: inactive
[1]
  MIC: 100 µM (≈ 98.9 µg/mL)

## CC(=O)N[C@H](CCN)C(=O)N[C@@H](CCN)C(=O)N[C@@H](CCN)C(=O)N[C@@H](CC(C)C)C(=O)N[C@H](Cc1ccccc1)C(=O)N[C@@H](CCN)C(=O)N[C@@H](CCN)C(=O)N[C@@H](CC(C)C)C(N)=O
[2]
  Activity: inactive
[1]
  MIC: > 100 µM

## CCC(C)CCC(=O)N[C@H](CCN)C(=O)N[C@@H](CCN)C(=O)N[C@@H](CCN)C(=O)N[C@@H](CC(C)C)C(=O)N[C@H](Cc1ccccc1)C(=O)N[C@@H](CCN)C(=O)N[C@@H](CCN)C(=O)N[C@@H](CC(C)C)C(=O)N[C@H](CCN)C(=O)N[C@@H](CCN)C(=O)N[C@@H](CCN)C(=O)N[C@@H](CC(C)C)C(=O)N[C@H](Cc1ccccc1)C(=O)N[C@@H](CCN)C(=O)N[C@@H](CCN)C(=O)N[C@@H](CC(C)C)C(=O)N[C@H](CCN)C(=O)N[C@@H](CCN)C(=O)N[C@@H](CCN)C(=O)N[C@@H](CC(C)C)C(=O)N[C@H](Cc1ccccc1)C(=O)N[C@@H](CCN)C(=O)N[C@@H](CCN)C(=O)N[C@@H](CC(C)C)C(N)=O (stereo partly specified)
[3]
  Ratio: 8 - 32
[4]
  MBEC50: 25 µM
[5]
  Activity: Dose-dependent effect
[6]
  Ratio: 4
[7]
  fractional inhibitory concentration index (FICI): 1.25
[8]
  fractional inhibitory concentration index (FICI): 0.62
[9]
  Activity: inactive
[10]
  hemolysis at 1 h, 1000 µM: 21%
[11]
  MBIC50: 6.25 µM
[12]
  Activity: Active
[13]
  Activity: Active
[1]
  MIC: 6.25 µM (≈ 17.2 µg/mL)
[14]
  MIC: 0.78 µM
[15]
  Activity: Active
[16]
  Activity: Active
[17]
  Activity: Active
[18]
  Activity: Active
[19]
  Ratio: 4
[20]
  MIC: 1.56 µM

## CCCCCCCCCCCCCC(=O)N[C@H](CCN)C(=O)N[C@@H](CCN)C(=O)N[C@@H](CCN)C(=O)N[C@@H](CC(C)C)C(=O)N[C@H](Cc1ccccc1)C(=O)N[C@@H](CCN)C(=O)N[C@@H](CCN)C(=O)N[C@@H](CC(C)C)C(N)=O (Myristoyl-[dDab][Dab][Dab]L[dF][Dab][Dab]L-NH2)
[1]
  MIC: 12.5 µM (≈ 13.8 µg/mL)

## CCC(C)CCC(O)CC(=O)N[C@H](CCN)C(=O)N[C@H]1CCNC(=O)[C@H](CC(C)C)NC(=O)[C@H](CCN)NC(=O)[C@H](CCN)NC(=O)[C@@H](Cc2ccccc2)NC(=O)[C@H](CC(C)C)NC(=O)[C@H](CCN)NC1=O (stereo partly specified) (X1-[dDab][Dab][Dab]L[dF][Dab][Dab]L; lactam 2-C)
[21]
  Activity: > 750 µg/mL
[22]
  LD50 at 336 h: 6 mg/kg
[23]
  Activity: > 128 µg/mL

## CC(C)=CCC/C(C)=C/C(=O)N[C@H](CCN)C(=O)N[C@@H](CCN)C(=O)N[C@@H](CCN)C(=O)N[C@@H](CC(C)C)C(=O)N[C@H](Cc1ccccc1)C(=O)N[C@@H](CCN)C(=O)N[C@@H](CCN)C(=O)N[C@@H](CC(C)C)C(N)=O (X2-[dDab][Dab][Dab]L[dF][Dab][Dab]L-NH2)
[1]
  MIC: 50 µM (≈ 52.1 µg/mL)

## CC[C@H](C)CCCCC(=O)N[C@@H](CCN)C(=O)N[C@H](C(=O)N[C@@H](CCN)C(=O)N[C@H]1CCNC(=O)[C@H]([C@@H](C)O)NC(=O)[C@H](CCN)NC(=O)[C@H](CCN)NC(=O)[C@H](CC(C)C)NC(=O)[C@@H](Cc2ccccc2)NC(=O)[C@H](CCN)NC1=O)[C@@H](C)O (X3-[Dab]T[Dab][Dab][Dab][dF]L[Dab][Dab]T; lactam 4-C)
[1]
  MIC: > 100 µM

## CC(C)C[C@H](NC(=O)[C@H](CCN)NC(=O)[C@H](CCN)NC(=O)[C@@H](Cc1ccccc1)NC(=O)[C@H](CC(C)C)NC(=O)[C@H](CCN)NC(=O)[C@H](CCN)NC(=O)[C@H](N)CCN)C(N)=O (H-[dDab][Dab][Dab]L[dF][Dab][Dab]L-NH2)
[1]
  MIC: > 100 µM
